This note sets out measurements from US9221827B2, “Antimicrobial compounds and methods of making and using the same” (Melinta Therapeutics, Inc., priority 2011, dated 2015).

Each structure is given as a SMILES string.

The subject of the assay is Escherichia coli strain ATCC25922. Description: standard microdilution assay to determine minimum inhibitory concentrations (MICs). The format is cell-based. As to conditions: Escherichia coli strain ATCC25922, microdilution. As for the experimental part: The in vitro activity of the compounds of the present invention can be determined. Antimicrobial testing is typically performed to determine the minimum inhibitory concentration (MIC). Minimum inhibitory concentrations (MICs) are determined by the microdilution method in a final volume of 100 μl according to protocols outlined by The Clinical and Laboratory Standards Institute (CLSI). Performance standards for reference strains are assessed within the same experimental design to maintain quality control. See, for example, Clinical Laboratory Standards Institute: Methods for dilution antimicrobial susceptibility tests for bacteria that grow aerobically M7-A8. Approved Standard-Eighth Edition. Wayne, Pa.: CLSI; December 2008; and Clinical Laboratory Standards Institute: Performance Standards for Antimicrobial Susceptibility Testing M100-S20; Approved Standard-Twentieth Edition. Wayne, Pa.: CLSI; June 2010.
The compounds of the present invention were tested for antimicrobial activity. […] The compounds were run against Escherichia coli strain ATCC25922 using a standard microdilution assay to determine minimum inhibitory concentrations (MICs). […] A “N/A” means that data is unavailable. It will be recognized by one skilled in the art that the compounds can be assessed against other bacterial organisms and that the presentation of data for activity against Escherichia coli is illustrative and in no way is intended to limit the scope of the present invention. The compounds of the present invention can be assayed against a range of other microorganisms depending upon the performance activity desired to be gathered. Furthermore, the “+”, “−”, and “N/A” representation and the selection of a cutoff value of 16 micrograms/ml is also illustrative and in no way is intended to limit the scope of the present invention.
For the compound `C[C@H](NCCCNC(=N)N)c1ccc(-n2cc3cc(-c4cc(CCCCN)cc(SC(F)(F)F)c4)[nH]c3nc2=O)cc1` [Compound 69], the “E. coli ATCC25922 MIC” value is “+ (a “+” indicates that the compound has an MIC value of 16 micrograms/ml or less)”. The value for `C[C@H](NCCCNC(=N)N)c1ccc(-n2cc3cc(-c4cc(COCCN)cc(OC(F)(F)F)c4)[nH]c3nc2=O)cc1` [Compound 70] was “+ (a “+” indicates that the compound has an MIC value of 16 micrograms/ml or less)”; that for `NCCCCc1cc(F)c(Cl)c(-c2cc3cn(-c4ccc(CNCCCN=C(N)N)c(F)c4)c(=O)nc3[nH]2)c1` [Compound 71] was “+ (a “+” indicates that the compound has an MIC value of 16 micrograms/ml or less)”. Under `Cc1cc(-c2cc3cn(-c4ccc(CNCCCN=C(N)N)cc4)c(=O)nc3[nH]2)cc(CCCCN)c1F` [Compound 73] stands “+ (a “+” indicates that the compound has an MIC value of 16 micrograms/ml or less)”; under `Cc1cc(-c2cc3cn(-c4ccc(CNCCCN=C(N)N)cc4)c(=O)nc3[nH]2)cc(CCCCNC(=N)N)c1F` [Compound 74], “+ (a “+” indicates that the compound has an MIC value of 16 micrograms/ml or less)”; under `NCCC[C@H](O)c1cc(OC(F)(F)F)cc(-c2cc3cn(-c4ccc(CNCCCN=C(N)N)cc4)c(=O)nc3[nH]2)c1` [Compound 75], “+ (a “+” indicates that the compound has an MIC value of 16 micrograms/ml or less)”.

`NCCC[C@@H](O)c1cc(OC(F)(F)F)cc(-c2cc3cn(-c4ccc(CNCCCN=C(N)N)cc4)c(=O)nc3[nH]2)c1` [Compound 76]: the “E. coli ATCC25922 MIC” value is “+ (a “+” indicates that the compound has an MIC value of 16 micrograms/ml or less)”. Under `CC(C)c1cc(CCCCN)cc(-c2cc3cn(-c4ccc(CNCCCN=C(N)N)c(F)c4)c(=O)nc3[nH]2)c1` [Compound 77] stands “+ (a “+” indicates that the compound has an MIC value of 16 micrograms/ml or less)”; under `CC(C)c1cc(CCCCN)cc(-c2cc3cn(-c4ccc([C@H](C)NCCCNC(=N)N)cc4)c(=O)nc3[nH]2)c1` [Compound 78], “+ (a “+” indicates that the compound has an MIC value of 16 micrograms/ml or less)”.

For the compound `NCc1cc(CCCO)cc(-c2cc3cn(-c4ccc(CNCCCN=C(N)N)cc4)c(=O)nc3[nH]2)c1` [Compound 79], the “E. coli ATCC25922 MIC” value was “+ (a “+” indicates that the compound has an MIC value of 16 micrograms/ml or less)”.

Take `NCCCCc1cc(-c2cc3cn(-c4ccc(CNCCCN=C(N)N)c(F)c4)c(=O)nc3[nH]2)cc(C(F)(F)F)c1` [Compound 80]: the “E. coli ATCC25922 MIC” value is “+ (a “+” indicates that the compound has an MIC value of 16 micrograms/ml or less)”. The value for `NC(N)=NCCCNCc1ccc(-n2cc3cc(-c4cc(CCCO)ccc4Cl)[nH]c3nc2=O)cc1` [Compound 82] was “+ (a “+” indicates that the compound has an MIC value of 16 micrograms/ml or less)”; that for `COc1cc(F)c(-c2cc3cn(-c4ccc(CNCCCN=C(N)N)cc4)c(=O)nc3[nH]2)cc1CCCCN` [Compound 83] was “+ (a “+” indicates that the compound has an MIC value of 16 micrograms/ml or less)”. Under `NCCCCc1c(F)ccc(-c2cc3cn(-c4ccc(CNCCCN=C(N)N)cc4)c(=O)nc3[nH]2)c1F` [Compound 84] stands “+ (a “+” indicates that the compound has an MIC value of 16 micrograms/ml or less)”; under `NCCCCc1cc(OC(F)(F)F)cc(-c2cc3cn(-c4ccc(CNCCCN=C(N)N)cc4F)c(=O)nc3[nH]2)c1` [Compound 90], “+ (a “+” indicates that the compound has an MIC value of 16 micrograms/ml or less)”. The value for `NCCCCc1cc(Cl)c(F)c(-c2cc3cn(-c4ccc(CNCCCN=C(N)N)cc4)c(=O)nc3[nH]2)c1` [Compound 91] was “+ (a “+” indicates that the compound has an MIC value of 16 micrograms/ml or less)”; that for `NCCCCc1cc(SC(F)(F)F)c(Cl)c(-c2cc3cn(-c4ccc(CNCCCN=C(N)N)cc4)c(=O)nc3[nH]2)c1` [Compound 92] was “+ (a “+” indicates that the compound has an MIC value of 16 micrograms/ml or less)”. Take `CC(CCN)Cc1cc(OC(F)(F)F)cc(-c2cc3cn(-c4ccc(CNCCCNC(=N)N)cc4)c(=O)nc3[nH]2)c1` (centres unmarked) [Compound 93]: the “E. coli ATCC25922 MIC” value is recorded as “+ (a “+” indicates that the compound has an MIC value of 16 micrograms/ml or less)”. In the case of `CC(CCCN)c1cc(OC(F)(F)F)cc(-c2cc3cn(-c4ccc(CNCCCNC(=N)N)cc4)c(=O)nc3[nH]2)c1` (centres unmarked) [Compound 94], the “E. coli ATCC25922 MIC” value was “+ (a “+” indicates that the compound has an MIC value of 16 micrograms/ml or less)”. Under `C=C(CCCN)c1cc(OC(F)(F)F)cc(-c2cc3cn(-c4ccc(CNCCCNC(=N)N)cc4)c(=O)nc3[nH]2)c1` [Compound 95] stands “+ (a “+” indicates that the compound has an MIC value of 16 micrograms/ml or less)”; under `N=C(N)NCCCNCc1ccc(-n2cc3cc(-c4cc(CCC5(CN)CCC5)cc(OC(F)(F)F)c4)[nH]c3nc2=O)cc1` [Compound 96], “+ (a “+” indicates that the compound has an MIC value of 16 micrograms/ml or less)”. Under `CC(C)c1cc(CCC(C)(C)CN)cc(-c2cc3cn(-c4ccc(CNCCCNC(=N)N)cc4)c(=O)nc3[nH]2)c1` [Compound 97] stands “+ (a “+” indicates that the compound has an MIC value of 16 micrograms/ml or less)”; under `CC(C)c1cc(CCC2(CN)CCC2)cc(-c2cc3cn(-c4ccc(CNCCCNC(=N)N)cc4)c(=O)nc3[nH]2)c1` [Compound 103], “+ (a “+” indicates that the compound has an MIC value of 16 micrograms/ml or less)”; under `CC(C)(CN)CCc1cc(OC(F)(F)F)cc(-c2cc3cn(-c4ccc(CNCCCNC(=N)N)cc4)c(=O)nc3[nH]2)c1` [Compound 104], “+ (a “+” indicates that the compound has an MIC value of 16 micrograms/ml or less)”. The value for `N=C(N)NCCCNCc1ccc(-n2cc3cc(-c4cc(CCCCN)cc(OC(F)(F)F)c4F)[nH]c3nc2=O)cc1` [Compound 107] was “+ (a “+” indicates that the compound has an MIC value of 16 micrograms/ml or less)”; that for `Cc1c(Cl)cc(CCCCN)cc1-c1cc2cn(-c3ccc(CNCCCNC(=N)N)cc3)c(=O)nc2[nH]1` [Compound 108] was “+ (a “+” indicates that the compound has an MIC value of 16 micrograms/ml or less)”. Regarding `Cc1c(Cl)cc(-c2cc3cn(-c4ccc(CNCCCNC(=N)N)cc4)c(=O)nc3[nH]2)cc1CCCCN` [Compound 109], the “E. coli ATCC25922 MIC” value was “+ (a “+” indicates that the compound has an MIC value of 16 micrograms/ml or less)”. The value for `N=C(N)NCCCNCc1ccc(-n2cc3cc(-c4cc(C5CC5CN)cc(C(F)(F)F)c4)[nH]c3nc2=O)cc1` (centres unmarked) [Compound 110] was “+ (a “+” indicates that the compound has an MIC value of 16 micrograms/ml or less)”; that for `N=C(N)NCCCNCc1ccc(-n2cc3cc(-c4cc(CCCCN)cc(C(F)(F)F)c4F)[nH]c3nc2=O)cc1` [Compound 111] was “+ (a “+” indicates that the compound has an MIC value of 16 micrograms/ml or less)”; that for `N=C(N)NCCCNCc1ccc(-n2cc3cc(-c4cc(OC(F)(F)F)cc(C(F)(F)CCCN)c4)[nH]c3nc2=O)cc1` [Compound 112] was “+ (a “+” indicates that the compound has an MIC value of 16 micrograms/ml or less)”.

In the case of `N#Cc1cc(CCCCN)cc(-c2cc3cn(-c4ccc(CNCCCNC(=N)N)cc4)c(=O)nc3[nH]2)c1Cl` [Compound 114], the “E. coli ATCC25922 MIC” value is reported as “+ (a “+” indicates that the compound has an MIC value of 16 micrograms/ml or less)”.

`N=C(N)NCCCNCc1ccc(-n2cc3cc(-c4cc(CCCCN)cc([N+](=O)[O-])c4Cl)[nH]c3nc2=O)cc1` [Compound 115]: the “E. coli ATCC25922 MIC” value is given as “+ (a “+” indicates that the compound has an MIC value of 16 micrograms/ml or less)”. The value for `N=C(N)NCCCNCc1ccc(-n2cc3cc(-c4cc(CCC5(CN)CCC5)ccc4F)[nH]c3nc2=O)cc1` [Compound 116] was “+ (a “+” indicates that the compound has an MIC value of 16 micrograms/ml or less)”; that for `CC(C)(CN)CCc1ccc(F)c(-c2cc3cn(-c4ccc(CNCCCNC(=N)N)cc4)c(=O)nc3[nH]2)c1` [Compound 117] was “+ (a “+” indicates that the compound has an MIC value of 16 micrograms/ml or less)”; that for `N#Cc1cc(-c2cc3cn(-c4ccc(CNCCCNC(=N)N)cc4)c(=O)nc3[nH]2)cc(CCCCN)c1Cl` [Compound 118] was “+ (a “+” indicates that the compound has an MIC value of 16 micrograms/ml or less)”. Turning to `Cc1c(-c2cc3cn(-c4ccc(CNCCCNC(=N)N)cc4)c(=O)nc3[nH]2)cc(CCCCN)cc1[N+](=O)[O-]` [Compound 120], the “E. coli ATCC25922 MIC” value is given as “+ (a “+” indicates that the compound has an MIC value of 16 micrograms/ml or less)”.

On to `Cc1c(CCCCN)cc(-c2cc3cn(-c4ccc(CNCCCNC(=N)N)cc4)c(=O)nc3[nH]2)cc1[N+](=O)[O-]` [Compound 121], for which the “E. coli ATCC25922 MIC” value is “+ (a “+” indicates that the compound has an MIC value of 16 micrograms/ml or less)”.

In the case of `N#Cc1cc(CCCCN)cc(-c2cc3cn(-c4ccc(CNCCCNC(=N)N)cc4)c(=O)nc3[nH]2)c1F` [Compound 122], the “E. coli ATCC25922 MIC” value is on record as “+ (a “+” indicates that the compound has an MIC value of 16 micrograms/ml or less)”.
